# Patent US7071206B2, “Agents for treating neurodegenerative disorders” (Medivation, Inc., priority 1995, dated 2006)
# Values joined by “and” are separate entries in the source; they are usually repeats but may differ in a detail not shown here. Equal entries are not always repeated.
# Tested on: patients suffering from Alzheimer's disease
# Assay: Clinical trial of dimebon tablets, inventors' scale (E. E. Bukatina et al.; 0 = absence of a symptom, 4 = greatest manifestation)
# Format: in vivo, human
# Procedure: The test was carried out under the direct supervision by two of the inventors, namely E. E. Bukatina and V. Grigorieva, in 14 patients who agreed to take part in the tests, 13 of whom lived in a boarding house for senile persons and one patient lived with their family.
# Alzheimer's disease was diagnosed on the basis of criteria ICD-10 NINCDS ADRDA.
# Dimebon in the form of tablets (comprising 10 mg of dimebon, 30 mg of lactose, 5 mg of magnesium stearate was prescribed for oral administration in a dose of 0.02 g three to times a day. The patients living in the boarding house received dimebon for 58 days. A patient (observation 14) who was under outpatient observation continued taking the agent for a month after the completion of the tests.
# Before the treatment with dimebon, and at 4 and 8 weeks after treatment the patients were examined according to Hazegawa's scale and the inventors' scale (“Social and Clinical Psychiatry”, 1992, No.4, pp.29–37) which includes the following indexes: (1) orientation in locality, time, immediate surroundings and one's own personality; (2) orientation in space; (3) memory for the past; (4) memory for the present; (5) “life in the past”; (6) (a) articulation, (b) difficulty in finding words, and distortion of words; (c) naming of objects; (d) following instructions; (7) concentration (of attention); (8) an affective sphere; (a) high spirits, (b) low spirits; (9) delirium; (10) hearing hallucinations; (11) visual hallucinations; (12) senile or senile-like confusion (when motion anxiety is accompanied by the revival of the past experience); (13) irritability; (14) anxiety; (15) asthenia; (16) headaches; (17) dizziness; (18) tearfulness; (19) spontaneous activity; (20) elementary self-service; and (21 control of sphincters.
# According to the Hazegawa's scale, the 0 score indicates the poorest result; on the contrary, according to the inventors' scale, the 0 score indicates the absence of a symptom 4 score indicates the greatest manifestation thereof. […] Before the therapy was started, the patients had been independently examined by two doctors who used the inventors' scale. The examination during the treatment was carried out by the doctors using both the scales. The evaluation according to all the inventors' scale points during all the tests and their variations during the treatment with dimebon are given in the Appendix.
# According to the inventors' scale, the degree of the disturbance if the cognitive functions was determined by a sum of evaluations according to the first 5 scale points reflecting the condition of memory, orientation and relation with the reality. The disturbance of speech was dealt with separately and was determined by a sum of evaluations according to items 6b-6d.
# Both absolute evaluations of the signs under investigation (the evaluation prior to treatment is a mean evaluation of the two examinations) and variations in them were analysed in the course of therapy. In doing so, only those changes that were beyond the range of evaluations obtained in two pre-treatment examinations were taken into consideration.
# The test results reflected the condition of the patients at the time of the examination. Any changes in the metal state observed in the interval between the tests and disappearing by the moment of examination according to the scale were described in the section “Clinical Observations”.
# The statistical data processing was carried out by means of Student's t-test and Fisher's “Fi” criterion.
# [1] = after 8 weeks vs two examinations prior to treatment, + improvement, − deterioration
# [2] = after 8 weeks, mean of 14 patients
# [3] = change at 4 weeks vs K1, K2, per patient, listed as dimebon
structure (smiles),measurement,setting,value
"Cc1ccc2c(c1)c1c(n2CCc2ccc(C)nc2)CCN(C)C1 [No. 10, 2,8-dimethyl-5-[2-(6-methyl-3-pyridyl)ethyl]-2,3,4,5-tetrahydro-1H-pyrido[4,3-b]indole]",Item 20 (elementary self-service): mean value,"after 4 weeks, mean of 14 patients",0.07 +/− 0.07 scores
same,mean score of tearfulness,after 8 weeks,0±0.0
same,number of patients with signs of aggravation of depression,after 8 weeks,One
same,tearfulness,after 8 weeks,not a single female patient suffered from tearfulness
same,"Item 1 (orientation in locality, time, immediate surroundings and one's own personality): change during the course of the therapy",[1],+0.18 +/− 0.08 scores
same,Item 2 (orientation in space): change during the course of the therapy,[1],+0.11 +/− 0.07 scores
same,Item 3 (memory for the past): change during the course of the therapy,[1],+0.29 +/− 0.1 scores
same,Item 4 (memory for the present): change during the course of the therapy,[1],_0.29 +/− 0.08 scores
same,Item 5 (life in the past): change during the course of the therapy,[1],_0.29 +/− 0.1 scores
same,Item 6a (speech): change during the course of the therapy,[1],+0.14 +/− 0.08 scores
same,"Item 6b (difficulty in finding words, and distortion of words): change during the course of the therapy",[1],−0.04 +/− 0.03 scores
same,Item 6g (speech): change during the course of the therapy,[1],−0.07 +/− 0.18 scores
same,Item 7 (concentration of attention): change during the course of the therapy,[1],−0.04 +/− 0.06 scores
same,Item 8b (low spirits): change during the course of the therapy,[1],+0.43 +/− 0.2 scores
same,Item 9 (delirium): change during the course of the therapy,[1],+0.25 +/− 0.17 scores
same,Item 13 (irritability): change during the course of the therapy,[1],+0.36 +/− 0.16 scores
same,Item 14 (anxiety): change during the course of the therapy,[1],+0.07 +/− 0.09 scores
same,Item 15 (asthenia): change during the course of the therapy,[1],0 +/− 0 scores
same,Item 16 (headaches): change during the course of the therapy,[1],+0.21 +/− 0.1 scores
same,Item 17 (dizziness): change during the course of the therapy,[1],−0.18 +/− 0.22 scores
same,Item 18 (tearfulness): change during the course of the therapy,[1],+0.21 +/− 0.15 scores
same,Item 19 (spontaneous activity): change during the course of the therapy,[1],+0.04 +/− 0.11 scores
same,Item 20 (elementary self-service): change during the course of the therapy,[1],0 +/− 0.1 scores
same,"Item 1 (orientation in locality, time, immediate surroundings and one's own personality): mean value",[2],1.57 +/− 0.23 scores
same,Item 2 (orientation in space): mean value,[2],0.25 +/− 0.13 scores
same,Item 3 (memory for the past): mean value,[2],1.93 +/− 0.24 scores
same,Item 4 (memory for the present): mean value,[2],1.86 +/− 0.23 scores
same,Item 5 (life in the past): mean value,[2],1.57 +/− 0.27 scores
same,Item 6a (speech): mean value,[2],0.54 +/− 0.21 scores
same,"Item 6b (difficulty in finding words, and distortion of words): mean value",[2],0.39 +/− 0.2 scores
same,Item 6g (speech): mean value,[2],0.54 +/− 0.19 scores
same,Item 7 (concentration of attention): mean value,[2],1.75 +/− 0.3 scores
same,Item 8b (low spirits): mean value,[2],0.46 +/− 0.14 scores
same,Item 9 (delirium): mean value,[2],0.5 +/− 0.19 scores
same,Item 13 (irritability): mean value,[2],0.14 +/− 0.09 scores
same,Item 14 (anxiety): mean value,[2],0.18 +/− 0.1 scores
same,Item 15 (asthenia): mean value,[2],0.04 +/− 0.03 scores
same,Item 16 (headaches): mean value,[2],0.64 +/− 0.24 scores
same,Item 17 (dizziness): mean value,[2],0.68 +/− 0.25 scores
same,Item 18 (tearfulness): mean value,[2],0.14 +/− 0.14 scores
same,Item 19 (spontaneous activity): mean value,[2],1.18 +/− 0.27 scores
same,Item 20 (elementary self-service): mean value,[2],0.14 +/− 0.4 scores
same,impairments according to the first 5 scale points (cognitive functions),both after 4-week and 8-week treatment,lack of impairments
same,"20. Elementary self-service, Changes (4 weeks)","change at 4 weeks vs K1, K2, per patient",+1
same,"2. Orientation in space, Changes (4 weeks)",[3],−0.5
same,"5. Life in the past, Changes (4 weeks)",[3],+0.5 (2×) and +1
same,"6c. Naming of objects, Changes (4 weeks)",[3],+0.5 and −1
same,"7. Concentration, Changes (4 weeks)",[3],+0.5 and −0.5
same,"8b. Lower spirits, Changes (4 weeks)",[3],+0.5 (3×) and +2 and +1
same,"9. Delirium, Changes (4 weeks)",[3],+0.5 and +1 and −0.5
same,"13. Irritability, Changes (4 weeks)",[3],+1.5 and +1 (2×) and +0.5
same,"14. Anxiety, Changes (4 weeks)",[3],+0.5 and +1 and −1 (2×)
same,"15. Asthenia, Changes (4 weeks)",[3],−0.5 and −1
same,"16. Headache, Changes (4 weeks)",[3],+1 (2×) and +2 (2×) and −1.5
same,"17. Dizziness, Changes (4 weeks)",[3],+1 and −1 and −2
same,"18. Tearfulness, Changes (4 weeks)",[3],+2 and 0
same,"6d. Performing instructions, Changes (4 weeks)",[3],−1 and +1 (2×)
same,"1. Orientation in locality and time, Changes (4 weeks)","change at 4 weeks vs K1, K2 prior to treatment, + improvement, − deterioration, — no change, per patient, listed as dimebon",+1 and +0.5
same,"1. Orientation in locality and time, Changes (8 weeks)","change at 8 weeks vs K1, K2, + improvement, − deterioration, — no change, per patient, listed as dimebon",+1 and +0.5 (3×)
